Results as given in patent publication US6737383B1, “Herbicidal oxadiazolidines” (priority 1999, dated 2004).

How the values were obtained:
[1] = test system: bamyardgrass; assay: Test B flood test barnyardgrass; format: in vivo, Echinochloa crus-galli
In short: (§1)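 Flood test on plants grown to the 2-leaf stage; treated plants kept in greenhouse twelve to sixteen days, then visually rated against controls on a 0 (no effect) to 10 (complete control) scale.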

[2] = test system: sugar beet; assay: Test B pre/postemergence sugar beet; format: in vivo, Beta vulgaris; settings: for Plant response rating, Sugarbeets: Rate 250 g/ha
In short: (§2)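 Response is a visual 0-to-10 score relative to untreated plants, where 0 means no effect and 10 means complete control, taken twelve to sixteen days after application. Treatments went onto soil at planting and onto foliage of 1- to 4-leaf plants, using a surfactant-containing non-phytotoxic solvent.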

[3] = test system: blackgrass; assay: Test B pre/postemergence blackgrass; format: in vivo, Alopecurus myosuroides
In short: as §2

[4] = test system: rape; assay: Test B pre/postemergence rape; format: in vivo, Brassica napus
In short: as §2

[5] = test system: surinam grass; assay: Test B pre/postemergence surinam grass; format: in vivo, Brachiaria decumbens
In short: as §2

[6] = test system: corn; assay: Test B pre/postemergence corn; format: in vivo, Zea mays
In short: as §2

[7] = test system: wild oat; assay: Test B pre/postemergence wild oat; format: in vivo, Avena fatua; settings: for Plant response rating, Wild oats: Rate 250 g/ha
In short: as §2

[8] = test system: rice; assay: Test B flood test rice; format: in vivo, Oryza sativa
In short: as §1

[9] = test system: smallflower flatsedge; assay: Test B flood test smallflower flatsedge; format: in vivo, Cyperus difformis
In short: as §1

[10] = test system: pigweed; assay: Test B pre/postemergence pigweed; format: in vivo, Amaranthus retroflexus
In short: as §2

[11] = test system: cocklebur; assay: Test B pre/postemergence cocklebur; format: in vivo, Xanthium strumarium
In short: as §2

[12] = test system: bedstraw; assay: Test B pre/postemergence bedstraw; format: in vivo, Galium aparine
In short: as §2

[13] = test system: soybean; assay: Test B pre/postemergence soybean; format: in vivo, Glycine max
In short: as §2

[14] = test system: morningglory; assay: Test B pre/postemergence morningglory; format: in vivo, Ipomoea hederacea
In short: as §2

[15] = test system: purple nutsedge; assay: Test B pre/postemergence purple nutsedge; format: in vivo, Cyperus rotundus
In short: as §2

[16] = test system: velvetleaf; assay: Test B pre/postemergence velvetleaf; format: in vivo, Abutilon theophrasti; settings: for Plant response rating, Velvetleaf: Rate 250 g/ha
In short: as §2

[17] = Postemergence, Rate 62 g/ha, scale 0 to 10, 0 is no effect, 10 is complete control
[18] = Rate 500 g/ha, listed under Postemergence (flood test species), scale 0 to 10, 0 no effect, 10 complete control
[19] = Postemergence, Rate 125 g/ha, scale of 0 to 10 where 0 is no effect and 10 is complete control
[20] = Preemergence, Rate 62 g/ha, scale 0 to 10 (0 no effect, 10 complete control)
[21] = Preemergence, Rate 125 g/ha, 0 is no effect, 10 is complete control
[22] = Preemergence, scale of 0 to 10 where 0 is no effect and 10 is complete control
[23] = Preemergence, Rate 500 g/ha, scale 0 (no effect) to 10 (complete control)
[24] = Postemergence, scale 0 to 10, 0 is no effect, 10 is complete control
[25] = Rate 500 g/ha, Postemergence, scale 0 to 10, 0 no effect, 10 complete control
[26] = Postemergence, Rate 250 g/ha, scale 0 to 10, 0 no effect, 10 complete control
[27] = Preemergence, Rate 125 g/ha, scale 0 to 10 (0 no effect, 10 complete control)
[28] = Preemergence, Rate 250 g/ha, scale of 0 to 10 where 0 is no effect and 10 is complete control
[29] = Rate 125 g/ha, Postemergence, scale 0 to 10, 0 no effect, 10 complete control
[30] = Postemergence (flood test species), Rate 125 g/ha, scale of 0 to 10 where 0 is no effect and 10 is complete control
[31] = Rate 250 g/ha, Postemergence (flood test), scale 0 to 10, 0 is no effect, 10 is complete control
[32] = Rate 250 g/ha, Postemergence, scale 0 to 10, 0 is no effect, 10 is complete control

Compound: Cc1nn(C)c(Cl)c1-n1c(=O)on(C(=O)N(c2ccc(F)cc2)C(C)C)c1=O [Compound 95]
- Barnyardgrass plant response rating [1, 17]: 0
- Barnyardgrass plant response rating ([1]; Rate 125 g/ha, Postemergence section (flood test species), scale 0 to 10, 0 no effect, 10 complete control): 0
- Barnyardgrass plant response rating [1, 18]: 4
- Barnyardgrass plant response rating ([1]; flood test, listed under Postemergence, Rate 250 g/ha, scale 0 to 10, 0 no effect, 10 complete control): 0
- Sugarbeets plant response rating [2, 17]: 2
- Sugarbeets plant response rating [2, 19]: 2
- Sugarbeets plant response rating [2, 20]: 0
- Sugarbeets plant response rating (0 to 10 scale) [2, 21]: 1
- Plant response rating, Sugarbeets [2, 22]: 2
- Sugarbeets plant response rating [2, 23]: 3
- Plant response rating, Sugarbeets [2, 24]: 4
- Sugarbeets plant response rating [2, 25]: 4
- Blackgrass plant response rating [3, 17]: 0
- Blackgrass plant response rating [3, 19]: 0
- Blackgrass plant response rating [3, 26]: 4
- Blackgrass plant response rating [3, 20]: 0
- Plant response rating, Blackgrass [3, 27]: 2
- Plant response rating, Blackgrass [3, 28]: 4
- Blackgrass plant response rating [3, 23]: 6
- Blackgrass plant response rating [3, 25]: 5
- Rape plant response rating [4, 17]: 0
- Rape plant response rating [4, 19]: 0
- Rape plant response rating [4, 26]: 0
- Rape plant response rating [4, 20]: 0
- Plant response rating, Rape [4, 27]: 0
- Plant response rating, Rape [4, 28]: 3
- Rape plant response rating [4, 23]: 3
- Rape plant response rating [4, 25]: 0
- B. signalgrass plant response rating [5, 17]: 0
- B. signalgrass plant response rating [5, 26]: 3
- B. signalgrass plant response rating [5, 20]: 0
- Plant response rating, B. signalgrass [5, 27]: 0
- Plant response rating, B. signalgrass [5, 28]: 3
- B. signalgrass plant response rating [5, 23]: 7
- B. signalgrass plant response rating [5, 29]: 0
- B. signalgrass plant response rating ([5]; Rate 500 g/ha, Postemergence, scale of 0 to 10 where 0 is no effect and 10 is complete control): 5
- Corn plant response rating [6, 17]: 0
- Corn plant response rating [6, 19]: 0
- Corn plant response rating [6, 26]: 0
- Corn plant response rating [6, 20]: 0
- Plant response rating, Corn [6, 27]: 0
- Plant response rating, Corn [6, 28]: 0
- Corn plant response rating [6, 23]: 0
- Corn plant response rating [6, 25]: 0
- Wild oats plant response rating [7, 17]: 0
- Wild oats plant response rating [7, 19]: 0
- Wild oats plant response rating [7, 20]: 0
- Wild oats plant response rating (0 to 10 scale) [7, 21]: 0
- Plant response rating, Wild oats [7, 22]: 2
- Wild oats plant response rating [7, 23]: 5
- Plant response rating, Wild oats [7, 24]: 0
- Wild oats plant response rating [7, 25]: 3
- Rice plant response rating [8, 30]: 0
- Rice plant response rating [8, 17]: 0
- Plant response rating, Rice [8, 31]: 2
- Rice plant response rating [8, 18]: 4
- S. Flatsedge plant response rating [9, 30]: 0
- S. Flatsedge plant response rating [9, 17]: 0
- Plant response rating, S. Flatsedge [9, 31]: 0
- S. Flatsedge plant response rating [9, 18]: 5
- Redroot pigweed plant response rating [10, 17]: 2
- Redroot pigweed plant response rating [10, 19]: 3
- Redroot pigweed plant response rating [10, 20]: 5
- Plant response rating, Redroot pigweed [10, 27]: 6
- Plant response rating, Redroot pigweed [10, 28]: 9
- Redroot pigweed plant response rating [10, 23]: 9
- Plant response rating, Redroot pigweed [10, 32]: 3
- Redroot pigweed plant response rating [10, 25]: 5
- Cocklebur plant response rating [11, 17]: 0
- Cocklebur plant response rating [11, 19]: 0
- Cocklebur plant response rating [11, 26]: 1
- Cocklebur plant response rating [11, 20]: 0
- Plant response rating, Cocklebur [11, 27]: 0
- Plant response rating, Cocklebur [11, 28]: 0
- Cocklebur plant response rating [11, 23]: 0
- Cocklebur plant response rating [11, 25]: 2
- Bedstraw plant response rating [12, 17]: 0
- Bedstraw plant response rating [12, 26]: 0
- Bedstraw plant response rating [12, 20]: 0
- Plant response rating, Bedstraw [12, 27]: 0
- Plant response rating, Bedstraw [12, 28]: 0
- Bedstraw plant response rating [12, 23]: 0
- Bedstraw plant response rating [12, 29]: 0
- Bedstraw plant response rating [12, 25]: 2
- Soybean plant response rating [13, 17]: 1
- Soybean plant response rating [13, 19]: 1
- Soybean plant response rating [13, 20]: 0
- Plant response rating, Soybean [13, 27]: 0
- Plant response rating, Soybean [13, 28]: 0
- Soybean plant response rating [13, 23]: 0
- Plant response rating, Soybean [13, 32]: 1
- Soybean plant response rating [13, 25]: 1
- Morningglory plant response rating [14, 17]: 1
- Morningglory plant response rating [14, 19]: 1
- Morningglory plant response rating [14, 26]: 2
- Morningglory plant response rating [14, 20]: 0
- Plant response rating, Morningglory [14, 27]: 0
- Plant response rating, Morningglory [14, 28]: 0
- Morningglory plant response rating [14, 23]: 0
- Morningglory plant response rating [14, 25]: 8
- Nutsedge plant response rating [15, 17]: 0
- Nutsedge plant response rating [15, 19]: 0
- Nutsedge plant response rating [15, 26]: 0
- Nutsedge plant response rating [15, 20]: 0
- Plant response rating, Nutsedge [15, 27]: 0
- Plant response rating, Nutsedge [15, 28]: 0
- Nutsedge plant response rating [15, 23]: 0
- Nutsedge plant response rating [15, 25]: 0
- Velvetleaf plant response rating [16, 17]: 0
- Velvetleaf plant response rating [16, 19]: 0
- Velvetleaf plant response rating [16, 20]: 0
- Velvetleaf plant response rating (0 to 10 scale) [16, 21]: 0
- Plant response rating, Velvetleaf [16, 22]: 0
- Velvetleaf plant response rating [16, 23]: 0
- Plant response rating, Velvetleaf [16, 24]: 0
- Velvetleaf plant response rating [16, 25]: 0
